Results as given in article PMC3445516 (PLoS ONE, 2012).
Read-outs that look alike come from different tables or passages of the source. Blank lines part the entries; values can stand above or below the compound they belong to.

Columns and labels:
Assay in all cases: Ambit kinase profiling, competition binding
[1] = biological target: T1, CAMKIIα (Homo sapiens, UniProt Q9UQM7); details: for competition: CAMKIIα, 10 µM
T1 construct: purchased Ambit Biosciences (KINOMEscan)
Description: (§1) Also included in the kinase profile are four isoforms of PKC (δ, ε, η, θ) and eight isoforms of CAMKs (CAMKIα, δ, γ; CAMKIIα, β, δ, γ; CAMK4).
(§2) The global kinase profiling experiment was performed by Ambit Biosciences.

[2] = biological target: T2, RET(M918T) (Homo sapiens, UniProt P07949, M918T)
T2 construct: purchased Ambit Biosciences (KINOMEscan)
T2 sequence (P07949 29-1114 M918T): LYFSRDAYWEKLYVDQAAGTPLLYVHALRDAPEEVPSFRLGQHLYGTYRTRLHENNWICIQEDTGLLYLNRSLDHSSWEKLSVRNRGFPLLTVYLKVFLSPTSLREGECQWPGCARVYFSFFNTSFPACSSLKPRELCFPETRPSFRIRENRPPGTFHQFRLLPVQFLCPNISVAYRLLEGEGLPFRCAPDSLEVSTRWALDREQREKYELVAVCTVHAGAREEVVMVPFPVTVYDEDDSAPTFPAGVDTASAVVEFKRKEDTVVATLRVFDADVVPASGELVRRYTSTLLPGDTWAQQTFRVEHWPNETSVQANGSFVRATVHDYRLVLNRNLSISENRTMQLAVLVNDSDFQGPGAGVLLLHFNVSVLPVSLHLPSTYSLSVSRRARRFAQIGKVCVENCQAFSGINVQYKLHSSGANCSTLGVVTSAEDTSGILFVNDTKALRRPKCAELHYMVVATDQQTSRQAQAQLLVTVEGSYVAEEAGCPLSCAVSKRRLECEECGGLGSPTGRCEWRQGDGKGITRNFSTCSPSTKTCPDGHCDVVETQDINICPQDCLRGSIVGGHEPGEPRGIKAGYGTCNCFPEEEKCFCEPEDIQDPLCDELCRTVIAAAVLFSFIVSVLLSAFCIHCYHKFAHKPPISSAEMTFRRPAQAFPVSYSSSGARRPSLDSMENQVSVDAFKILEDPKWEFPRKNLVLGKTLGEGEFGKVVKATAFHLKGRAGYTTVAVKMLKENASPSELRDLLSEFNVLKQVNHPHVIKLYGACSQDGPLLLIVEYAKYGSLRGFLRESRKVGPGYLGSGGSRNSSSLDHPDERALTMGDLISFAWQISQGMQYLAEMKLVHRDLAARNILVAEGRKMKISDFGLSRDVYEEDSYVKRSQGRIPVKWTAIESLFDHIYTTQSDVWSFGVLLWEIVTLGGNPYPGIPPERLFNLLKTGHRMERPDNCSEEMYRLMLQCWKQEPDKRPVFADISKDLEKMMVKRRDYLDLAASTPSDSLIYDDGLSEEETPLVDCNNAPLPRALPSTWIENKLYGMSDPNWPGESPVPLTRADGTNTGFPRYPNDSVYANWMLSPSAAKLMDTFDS
Description: as §1, §2

[3] = biological target: T3, SNARK (Homo sapiens, UniProt Q9H093); details: for % Competition: 10 µM
T3 construct: purchased Ambit Biosciences (KINOMEscan)
T3 sequence (Q9H093 1-628): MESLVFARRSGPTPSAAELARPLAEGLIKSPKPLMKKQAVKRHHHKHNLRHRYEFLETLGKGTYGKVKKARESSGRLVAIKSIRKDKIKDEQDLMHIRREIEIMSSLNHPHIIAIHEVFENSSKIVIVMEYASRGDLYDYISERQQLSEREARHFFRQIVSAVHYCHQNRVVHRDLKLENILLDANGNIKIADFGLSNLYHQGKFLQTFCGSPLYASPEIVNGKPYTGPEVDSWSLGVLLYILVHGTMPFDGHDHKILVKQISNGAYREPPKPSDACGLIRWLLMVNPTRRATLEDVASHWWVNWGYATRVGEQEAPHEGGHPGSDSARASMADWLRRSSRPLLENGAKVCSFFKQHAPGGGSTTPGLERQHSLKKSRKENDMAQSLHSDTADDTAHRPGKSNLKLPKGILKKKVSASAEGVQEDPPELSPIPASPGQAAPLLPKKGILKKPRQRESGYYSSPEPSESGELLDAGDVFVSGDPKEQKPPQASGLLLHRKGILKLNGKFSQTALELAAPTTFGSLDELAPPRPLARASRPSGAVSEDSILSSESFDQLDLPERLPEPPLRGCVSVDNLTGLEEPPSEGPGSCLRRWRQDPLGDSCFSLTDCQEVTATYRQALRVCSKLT
Description: as §1, §2

[4] = biological target: T4, CAMKIIγ (Homo sapiens, UniProt Q13555); details: for competition: CAMKIIγ, 10 µM
T4 construct: purchased Ambit Biosciences (KINOMEscan)
T4 sequence (Q13555 whole entry): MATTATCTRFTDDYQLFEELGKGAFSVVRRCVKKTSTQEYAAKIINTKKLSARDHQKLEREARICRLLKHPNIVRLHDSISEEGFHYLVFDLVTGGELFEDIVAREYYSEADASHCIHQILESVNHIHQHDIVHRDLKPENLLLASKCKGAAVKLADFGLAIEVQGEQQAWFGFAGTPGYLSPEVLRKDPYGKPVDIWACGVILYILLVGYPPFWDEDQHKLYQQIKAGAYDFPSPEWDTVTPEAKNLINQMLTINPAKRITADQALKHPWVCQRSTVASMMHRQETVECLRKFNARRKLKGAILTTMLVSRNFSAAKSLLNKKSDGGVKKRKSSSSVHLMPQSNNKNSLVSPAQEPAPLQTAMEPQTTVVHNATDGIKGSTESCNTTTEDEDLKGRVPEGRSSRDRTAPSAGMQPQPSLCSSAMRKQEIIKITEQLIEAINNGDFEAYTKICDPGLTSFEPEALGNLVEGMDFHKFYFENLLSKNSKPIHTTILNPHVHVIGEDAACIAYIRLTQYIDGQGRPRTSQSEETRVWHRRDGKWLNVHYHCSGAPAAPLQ
Description: as §1, §2

[5] = biological target: T5, ACVRL1 (Homo sapiens, UniProt P37023)
T5 construct: purchased Ambit Biosciences (KINOMEscan)
T5 sequence (P37023 22-503): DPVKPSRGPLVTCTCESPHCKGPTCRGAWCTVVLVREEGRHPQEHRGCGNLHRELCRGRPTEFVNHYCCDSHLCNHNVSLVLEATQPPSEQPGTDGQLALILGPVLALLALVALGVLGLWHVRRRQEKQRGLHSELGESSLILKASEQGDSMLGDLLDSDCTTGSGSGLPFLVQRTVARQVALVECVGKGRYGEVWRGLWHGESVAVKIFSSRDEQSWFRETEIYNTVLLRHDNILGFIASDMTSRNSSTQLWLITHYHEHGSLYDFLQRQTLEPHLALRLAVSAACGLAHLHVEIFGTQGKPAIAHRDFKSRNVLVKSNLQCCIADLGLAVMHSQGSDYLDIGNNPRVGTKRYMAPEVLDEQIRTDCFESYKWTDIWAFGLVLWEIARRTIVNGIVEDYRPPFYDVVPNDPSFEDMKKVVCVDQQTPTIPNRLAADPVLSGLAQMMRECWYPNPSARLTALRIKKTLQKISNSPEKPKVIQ
Description: as §1, §2

[6] = biological target: T6, CSNK1G2 (Homo sapiens, UniProt P78368); details: for % Competition: 10 µM
T6 construct: purchased Ambit Biosciences (KINOMEscan)
Description: as §1, §2

[7] = biological target: T7, CAMKIIδ (Homo sapiens, UniProt Q13557); details: for competition: CAMKIIδ, 10 µM
T7 construct: purchased Ambit Biosciences (KINOMEscan)
T7 sequence (Q13557 whole entry): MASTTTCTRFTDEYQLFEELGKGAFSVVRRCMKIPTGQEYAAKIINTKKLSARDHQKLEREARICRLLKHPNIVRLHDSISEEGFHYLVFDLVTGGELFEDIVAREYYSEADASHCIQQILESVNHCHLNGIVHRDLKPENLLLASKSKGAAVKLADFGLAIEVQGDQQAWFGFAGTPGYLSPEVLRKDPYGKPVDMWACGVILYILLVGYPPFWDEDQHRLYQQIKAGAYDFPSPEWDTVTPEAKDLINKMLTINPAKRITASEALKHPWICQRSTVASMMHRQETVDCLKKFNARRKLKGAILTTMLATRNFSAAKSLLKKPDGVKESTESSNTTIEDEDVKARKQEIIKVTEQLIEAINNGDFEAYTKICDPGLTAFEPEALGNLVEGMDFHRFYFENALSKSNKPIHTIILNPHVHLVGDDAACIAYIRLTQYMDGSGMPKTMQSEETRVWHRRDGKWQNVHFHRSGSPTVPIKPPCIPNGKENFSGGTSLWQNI
Description: as §1, §2

[8] = biological target: T8, GSK3A (Homo sapiens, UniProt P49840)
T8 construct: purchased Ambit Biosciences (KINOMEscan)
Description: as §1, §2

[9] = biological target: T9, AURKC (Homo sapiens, UniProt Q9UQB9)
T9 construct: purchased Ambit Biosciences (KINOMEscan)
T9 sequence (Q9UQB9 1-309): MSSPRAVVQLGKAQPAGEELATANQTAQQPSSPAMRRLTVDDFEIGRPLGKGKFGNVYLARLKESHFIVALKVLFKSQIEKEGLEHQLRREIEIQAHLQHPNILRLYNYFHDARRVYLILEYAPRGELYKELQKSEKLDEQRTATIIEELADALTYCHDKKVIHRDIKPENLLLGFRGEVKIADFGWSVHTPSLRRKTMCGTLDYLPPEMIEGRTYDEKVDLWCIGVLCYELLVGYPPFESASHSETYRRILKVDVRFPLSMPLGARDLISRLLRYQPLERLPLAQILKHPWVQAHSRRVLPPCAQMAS
Description: as §1, §2

[10] = biological target: T10, JAK1 (JH2 domain-pseudokinase) (Homo sapiens, UniProt P23458); details: for % Competition: JAK1 (JH2 domain-pseudokinase), 10 µM
T10 construct: JAK1 (JH2 domain-pseudokinase); purchased Ambit Biosciences (KINOMEscan)
T10 sequence (P23458 583-855 limits assumed): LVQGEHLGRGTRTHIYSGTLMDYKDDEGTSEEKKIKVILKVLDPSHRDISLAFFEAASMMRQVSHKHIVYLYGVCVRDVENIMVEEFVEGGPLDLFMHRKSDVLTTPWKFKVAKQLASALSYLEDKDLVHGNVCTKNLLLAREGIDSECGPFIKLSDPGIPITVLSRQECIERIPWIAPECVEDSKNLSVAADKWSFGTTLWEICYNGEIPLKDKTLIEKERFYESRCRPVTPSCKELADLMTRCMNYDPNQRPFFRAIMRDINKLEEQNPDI
Description: as §1, §2

[11] = biological target: T11, KIT(V559D) (Homo sapiens, UniProt P10721, V559D)
T11 construct: purchased Ambit Biosciences (KINOMEscan)
T11 sequence (P10721 26-976 V559D): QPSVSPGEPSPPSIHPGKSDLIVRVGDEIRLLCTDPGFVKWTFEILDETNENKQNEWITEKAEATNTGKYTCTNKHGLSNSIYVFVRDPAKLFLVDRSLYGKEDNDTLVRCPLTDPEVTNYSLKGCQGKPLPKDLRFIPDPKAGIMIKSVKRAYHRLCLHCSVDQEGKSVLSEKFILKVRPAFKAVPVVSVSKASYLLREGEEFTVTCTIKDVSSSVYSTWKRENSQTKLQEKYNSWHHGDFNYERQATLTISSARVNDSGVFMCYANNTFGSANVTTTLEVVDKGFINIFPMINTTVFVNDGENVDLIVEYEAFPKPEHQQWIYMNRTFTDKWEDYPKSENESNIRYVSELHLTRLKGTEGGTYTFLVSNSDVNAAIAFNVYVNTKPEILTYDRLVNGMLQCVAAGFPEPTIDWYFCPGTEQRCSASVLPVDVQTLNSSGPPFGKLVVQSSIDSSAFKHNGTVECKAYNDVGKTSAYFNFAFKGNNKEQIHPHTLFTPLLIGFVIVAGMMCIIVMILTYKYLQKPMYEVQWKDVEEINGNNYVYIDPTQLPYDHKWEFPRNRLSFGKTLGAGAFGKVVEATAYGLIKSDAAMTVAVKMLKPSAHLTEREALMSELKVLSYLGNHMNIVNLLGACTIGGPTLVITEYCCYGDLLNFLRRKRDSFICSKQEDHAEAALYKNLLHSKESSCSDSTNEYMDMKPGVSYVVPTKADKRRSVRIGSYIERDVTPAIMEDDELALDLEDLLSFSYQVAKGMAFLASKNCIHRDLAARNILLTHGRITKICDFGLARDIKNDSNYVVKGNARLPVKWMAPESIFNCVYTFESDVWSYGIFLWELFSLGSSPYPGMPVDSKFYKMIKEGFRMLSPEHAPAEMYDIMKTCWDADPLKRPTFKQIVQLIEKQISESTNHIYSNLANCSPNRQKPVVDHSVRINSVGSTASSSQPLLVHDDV
Description: as §1, §2

[12] = biological target: T12, CDC2L2 (Homo sapiens, UniProt Q9UQ88)
T12 construct: purchased Ambit Biosciences (KINOMEscan)
T12 sequence (Q9UQ88 1-783): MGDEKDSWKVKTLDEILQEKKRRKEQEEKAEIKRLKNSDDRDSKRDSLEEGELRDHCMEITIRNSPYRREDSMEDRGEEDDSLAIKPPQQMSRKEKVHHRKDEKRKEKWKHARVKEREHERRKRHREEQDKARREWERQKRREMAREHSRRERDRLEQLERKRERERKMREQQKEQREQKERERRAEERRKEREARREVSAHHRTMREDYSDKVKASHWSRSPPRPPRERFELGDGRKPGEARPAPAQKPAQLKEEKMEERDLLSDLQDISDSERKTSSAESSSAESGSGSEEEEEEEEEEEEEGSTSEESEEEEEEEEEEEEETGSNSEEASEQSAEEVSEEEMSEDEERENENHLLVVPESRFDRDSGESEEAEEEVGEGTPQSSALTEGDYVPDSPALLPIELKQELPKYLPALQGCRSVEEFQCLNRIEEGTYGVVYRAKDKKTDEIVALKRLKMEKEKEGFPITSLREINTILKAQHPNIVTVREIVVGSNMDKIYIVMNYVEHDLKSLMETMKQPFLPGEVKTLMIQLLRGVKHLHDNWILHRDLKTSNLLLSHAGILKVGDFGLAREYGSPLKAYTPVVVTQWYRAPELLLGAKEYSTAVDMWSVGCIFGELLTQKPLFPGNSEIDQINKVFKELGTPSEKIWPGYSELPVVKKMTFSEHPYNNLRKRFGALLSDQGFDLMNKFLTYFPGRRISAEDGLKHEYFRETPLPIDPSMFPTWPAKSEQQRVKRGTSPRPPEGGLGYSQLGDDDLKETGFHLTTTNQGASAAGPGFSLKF
Description: as §1, §2

[13] = biological target: T13, DYRK1B (Homo sapiens, UniProt Q9Y463)
T13 construct: purchased Ambit Biosciences (KINOMEscan)
T13 sequence (Q9Y463 whole entry): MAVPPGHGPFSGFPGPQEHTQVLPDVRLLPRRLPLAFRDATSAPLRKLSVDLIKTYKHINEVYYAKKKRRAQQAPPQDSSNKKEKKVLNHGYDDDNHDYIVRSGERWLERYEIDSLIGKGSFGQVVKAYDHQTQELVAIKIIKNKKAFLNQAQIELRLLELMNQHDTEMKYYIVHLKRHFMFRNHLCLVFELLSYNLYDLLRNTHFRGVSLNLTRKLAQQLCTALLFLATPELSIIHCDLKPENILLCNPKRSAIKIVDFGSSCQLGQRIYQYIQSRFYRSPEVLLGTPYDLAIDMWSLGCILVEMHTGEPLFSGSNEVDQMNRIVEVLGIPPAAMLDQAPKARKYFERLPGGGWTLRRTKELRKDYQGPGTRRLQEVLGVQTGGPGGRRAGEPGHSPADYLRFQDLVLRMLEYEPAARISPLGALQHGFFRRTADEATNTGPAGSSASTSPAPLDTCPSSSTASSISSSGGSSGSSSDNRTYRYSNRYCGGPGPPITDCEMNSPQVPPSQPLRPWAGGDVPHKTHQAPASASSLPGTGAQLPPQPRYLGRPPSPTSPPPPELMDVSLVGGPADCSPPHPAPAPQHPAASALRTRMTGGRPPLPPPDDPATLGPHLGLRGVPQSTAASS
Description: as §1, §2

T1 sequence (Q9UQM7 whole entry): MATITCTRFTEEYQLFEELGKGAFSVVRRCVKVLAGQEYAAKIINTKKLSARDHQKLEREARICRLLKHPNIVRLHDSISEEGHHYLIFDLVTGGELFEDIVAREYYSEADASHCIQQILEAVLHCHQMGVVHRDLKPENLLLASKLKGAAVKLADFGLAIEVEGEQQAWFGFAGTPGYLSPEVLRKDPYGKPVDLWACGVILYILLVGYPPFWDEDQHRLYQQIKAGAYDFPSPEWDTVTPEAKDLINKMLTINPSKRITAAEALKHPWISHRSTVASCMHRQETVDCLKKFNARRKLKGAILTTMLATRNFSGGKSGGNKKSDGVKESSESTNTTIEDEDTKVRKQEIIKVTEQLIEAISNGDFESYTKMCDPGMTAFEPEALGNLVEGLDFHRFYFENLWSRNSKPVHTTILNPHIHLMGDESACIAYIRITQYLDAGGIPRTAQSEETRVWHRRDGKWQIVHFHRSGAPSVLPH

- competition [1]: < 50%
- inhibition at 10 µM ([2]; RET(M918T), 10 µM, read-out: % Competition): 68%
- % Competition [3]: 89%
- competition [4]: < 50%
- inhibition at 10 µM ([5]; ACVRL1, 10 µM, read-out: % Competition): 83%
- % Competition [6]: 82%
- competition [7]: < 50%
- inhibition at 10 µM ([8]; GSK3A, 10 µM, read-out: % Competition): 98%
- inhibition at 10 µM ([9]; AURKC, 10 µM, read-out: % Competition): 86%
- % Competition [10]: 99%
- inhibition at 10 µM ([11]; KIT(V559D), 10 µM, read-out: % Competition): 75%
- inhibition at 10 µM ([12]; CDC2L2, 10 µM, read-out: % Competition): 92%
- inhibition at 10 µM ([13]; DYRK1B, 10 µM, read-out: % Competition): 79%
Structure (SMILES): Fc1ccc(-c2c(-c3ccncc3)[nH]c3nccnc23)cc1 [Compound 122]

Structure (SMILES): CC(O)CNc1cc(-c2[nH]c3cccnc3c2-c2ccc(F)cc2)ccn1 (stereo not drawn) [Compound 140]
- competition [1]: < 50%
- inhibition at 10 µM ([2]; read-out: % Competition): < 50%
- % Competition [3]: <50%
- competition [4]: < 50%
- inhibition at 10 µM ([5]; read-out: % Competition): < 50%
- % Competition [6]: 89%
- competition [7]: < 50%
- inhibition at 10 µM ([8]; read-out: % Competition): < 50%
- inhibition at 10 µM ([9]; read-out: % Competition): < 50%
- % Competition [10]: 90%
- inhibition at 10 µM ([11]; read-out: % Competition): < 50%
- inhibition at 10 µM ([12]; read-out: % Competition): < 50%
- inhibition at 10 µM ([13]; read-out: % Competition): < 50%

- inhibition at 10 µM ([1]; CAMK2A, compound concentration 10 uM, read-out: Percent Competition): < 50%
- inhibition at 10 µM ([2]; RET(M918T), compound concentration 10 uM, read-out: Percent Competition): 68%
- Percent Competition ([3]; compound concentration 10 uM): 89%
- inhibition at 10 µM ([4]; CAMK2G, compound concentration 10 uM, read-out: Percent Competition): < 50%
- inhibition at 10 µM ([5]; ACVRL1, compound concentration 10 uM, read-out: Percent Competition): 83%
- Percent Competition ([6]; compound concentration 10 uM): 82%
- inhibition at 10 µM ([7]; CAMK2D, compound concentration 10 uM, read-out: Percent Competition): < 50%
- inhibition at 10 µM ([8]; GSK3A, compound concentration 10 uM, read-out: Percent Competition): 98%
- inhibition at 10 µM ([9]; AURKC, compound concentration 10 uM, read-out: Percent Competition): 86%
- Percent Competition ([10]; JAK1(JH2domain-pseudokinase), compound concentration 10 uM): 99%
- inhibition at 10 µM ([11]; KIT(V559D), compound concentration 10 uM, read-out: Percent Competition): 75%
- inhibition at 10 µM ([12]; CDC2L2, compound concentration 10 uM, read-out: Percent Competition): 92%
- inhibition at 10 µM ([13]; DYRK1B, compound concentration 10 uM, read-out: Percent Competition): 79%
Structure (SMILES): Fc1ccc(-c2c(-c3ccncc3)[nH]c3nccnc23)cc1 [RO1155697-000-005]
